Measured values: ChEMBL document CHEMBL4665709, “Rational Avoidance of Protease Cleavage Sites and Symmetrical End-Tagging Significantly Enhances the Stability and Therapeutic Potential of Antimicrobial Peptides” (J Med Chem, 2020)
Converted amounts (≈) assume the structure as drawn. Where a SMILES comes first, the peptide text is derived from it.

What was measured:
[1] = Therapeutic index, ratio of MHC for human RBC to geometric mean of peptide MIC for Staphylococcus epidermidis ATCC 12228; format: toxicity; conditions: human red blood cells (RBC), read-out: TI
Salmonella typhimurium [2] = experiment: Antibacterial activity against Salmonella typhimurium 7731 after 18 to 24 hrs by CLSI-based broth microdilution method; format: functional, Salmonella enterica subsp. enterica serovar Typhimurium; conditions: Salmonella enterica, time hrs 18-24
[3] = Cytotoxicity against mouse RAW264.7 cells assessed as cell viability at 128 uM by MTT assay relative to control; format: cell-based; conditions: read-out: Activity
[4] = Therapeutic index, ratio of MHC for human RBC to geometric mean of peptide MIC for Streptococcus agalactiae H92; format: toxicity; conditions: human red blood cells (RBC), read-out: TI
[5] = Therapeutic index, ratio of MHC for human RBC to geometric mean of peptide MIC for methicillin-resistant Staphylococcus aureus 43300; format: toxicity; conditions: human red blood cells (RBC), read-out: TI
Staphylococcus aureus [6] = experiment: Antibacterial activity against Staphylococcus aureus ATCC 29213 after 18 to 24 hrs by CLSI-based broth microdilution method; format: functional; conditions: time hrs 18-24
Staphylococcus aureus [7] = experiment: Antibacterial activity against Staphylococcus aureus 11011 after 18 to 24 hrs by CLSI-based broth microdilution method; format: functional; conditions: time hrs 18-24
[8] = Antibacterial activity against Salmonella pullorum 7913 after 18 to 24 hrs by CLSI-based broth microdilution method; format: functional, Salmonella enterica subsp. enterica serovar Pullorum; conditions: Salmonella enterica, time hrs 18-24
Salmonella enterica = experiment: Antibacterial activity against Salmonella choleraesuis 503 after 18 to 24 hrs by CLSI-based broth microdilution method; format: functional; conditions: time hrs 18-24
Enterococcus faecalis = experiment: Antibacterial activity against Enterococcus faecalis ATCC 29212 after 18 to 24 hrs by CLSI-based broth microdilution method; format: functional; conditions: time hrs 18-24
[9] = Hemolytic activity in human RBC assessed as hemolysis at 1 to 128 uM relative to control; format: ADME, cell-based, Erythrocyte; conditions: human red blood cells (RBC), dose 1-128 µM, read-out: Activity
[10] = Cytotoxicity against HEK-293T cells assessed as cell viability at 128 uM by MTT assay relative to control; format: cell-based; conditions: human, read-out: Activity
[11] = Therapeutic index, ratio of MHC for human RBC to geometric mean of peptide MIC for Escherichia coli UB1005; format: toxicity; conditions: human red blood cells (RBC), read-out: TI
Escherichia coli [12] = experiment: Antibacterial activity against Escherichia coli ATCC 25922 after 18 to 24 hrs by CLSI-based broth microdilution method; format: functional; conditions: time hrs 18-24
[13] = Therapeutic index, ratio of MHC for human RBC to geometric mean of peptide MIC for Salmonella typhimurium 14028; format: toxicity; conditions: human red blood cells (RBC), read-out: TI
[14] = Therapeutic index, ratio of MHC for human RBC to geometric mean of peptide MIC for Escherichia coli ATCC 25922; format: toxicity; conditions: human red blood cells (RBC), read-out: TI
Staphylococcus aureus [15] = experiment: Antibacterial activity against methicillin-resistant Staphylococcus aureus 43300 after 18 to 24 hrs by CLSI-based broth microdilution method; format: functional; conditions: time hrs 18-24
Salmonella typhimurium [16] = experiment: Antibacterial activity against Salmonella typhimurium 14028 after 18 to 24 hrs by CLSI-based broth microdilution method; format: functional, Salmonella enterica subsp. enterica serovar Typhimurium; conditions: Salmonella enterica, time hrs 18-24
[17] = Therapeutic index, ratio of MHC for human RBC to geometric mean of peptide MIC for Staphylococcus aureus ATCC 29213; format: toxicity; conditions: human red blood cells (RBC), read-out: TI
[18] = tested on: Staphylococcus epidermidis; experiment: Antibacterial activity against Staphylococcus epidermidis ATCC 12228 after 18 to 24 hrs by CLSI-based broth microdilution method; format: functional; conditions: time hrs 18-24
Escherichia coli [19] = experiment: Antibacterial activity against Escherichia coli UB1005 after 18 to 24 hrs by CLSI-based broth microdilution method; format: functional; conditions: time hrs 18-24
Erythrocyte = experiment: Hemolytic activity in human RBC assessed as hemolysis; format: ADME, cell-based
[20] = Therapeutic index, ratio of MHC for human RBC to geometric mean of peptide MIC for Enterococcus faecalis ATCC 29212; format: toxicity; conditions: human red blood cells (RBC), read-out: TI
[21] = Therapeutic index, ratio of MHC for human RBC to geometric mean of peptide MIC for Salmonella pullorum 7913; format: toxicity; conditions: human red blood cells (RBC), read-out: TI
[22] = Therapeutic index, ratio of MHC for human RBC to geometric mean of peptide MIC for Staphylococcus aureus 11011; format: toxicity; conditions: human red blood cells (RBC), read-out: TI
[23] = Therapeutic index, ratio of MHC for human RBC to geometric mean of peptide MIC for Salmonella choleraesuis 503; format: toxicity; conditions: human red blood cells (RBC), read-out: TI
Streptococcus agalactiae = experiment: Antibacterial activity against Streptococcus agalactiae H92 after 18 to 24 hrs by CLSI-based broth microdilution method; format: functional; conditions: time hrs 18-24
[24] = Therapeutic index, ratio of MHC for human RBC to geometric mean of peptide MIC for Salmonella typhimurium 7731; format: toxicity; conditions: human red blood cells (RBC), read-out: TI

SMILES | selectivity ratio [1] | MIC (Salmonella typhimurium [2]) [µM] | viability at 128 µM [3] [%] | selectivity ratio [4] | selectivity ratio [5] | MIC (Staphylococcus aureus [6]) [µM] | MIC (Staphylococcus aureus [7]) [µM] | MIC [8] [µM] | MIC (Salmonella enterica) [µM] | MIC (Enterococcus faecalis) [µM] | hemolysis at up to 128 µM [9] [%] | viability at 128 µM [10] [%] | selectivity ratio [11] | MIC (Escherichia coli [12]) [µM] | selectivity ratio [13] | selectivity ratio [14] | MIC (Staphylococcus aureus [15]) [µM] | MIC (Salmonella typhimurium [16]) [µM] | selectivity ratio [17] | MIC [18] [µM] | other results
CC[C@H](C)[C@H](N)C(=O)N[C@H](C(=O)N[C@@H](CS)C(=O)N[C@@H](CCCNC(=N)N)C(=O)N[C@@H](CCCCN)C(=O)N1CCC[C@H]1C(=O)N[C@H](C(=O)N[C@H](C(=O)N[C@@H](CS)C(=O)N[C@@H](CCCNC(=N)N)C(=O)N[C@@H](CCCCN)C(=O)N1CCC[C@H]1C(=O)N[C@H](C(=O)N[C@H](C(=O)N[C@@H](CS)C(=O)N[C@@H](CCCNC(=N)N)C(=O)N[C@@H](CCCCN)C(=O)N1CCC[C@H]1C(=O)N[C@H](C(=O)N[C@H](C(=O)N[C@@H](CS)C(=O)N[C@@H](CCCNC(=N)N)C(=O)N[C@@H](CCCCN)C(=O)N1CCC[C@H]1C(=O)N[C@H](C(=O)N[C@H](C(=O)N[C@@H](CS)C(=O)N[C@@H](CCCNC(=N)N)C(=O)N[C@@H](CCCCN)C(=O)N1CCC[C@H]1C(=O)N[C@H](C(=O)N[C@H](C(N)=O)[C@@H](C)CC)[C@@H](C)CC)[C@@H](C)CC)[C@@H](C)CC)[C@@H](C)CC)[C@@H](C)CC)[C@@H](C)CC)[C@@H](C)CC)[C@@H](C)CC)[C@@H](C)CC)[C@@H](C)CC (H-IICRKPIICRKPIICRKPIICRKPIICRKPII-NH2) | 2 | 2 (≈ 7.6 µg/mL) | > 90 | 2 | 2 | > 64 | > 64 | 8 (≈ 30.4 µg/mL) | 4 (≈ 15.2 µg/mL) | > 64 | < 5 | > 90 | 40.3 | 2 (≈ 7.6 µg/mL) | 40.3 | 40.3 | 64 (≈ 243 µg/mL) | 4 (≈ 15.2 µg/mL) | 2 | 64 (≈ 243 µg/mL) | MIC (Escherichia coli [19]): 2 µM (≈ 7.6 µg/mL); MHC (Erythrocyte): > 128 µM; selectivity ratio [20]: 2; selectivity ratio [21]: 40.3; selectivity ratio [22]: 2; selectivity ratio [23]: 40.3; MIC (Streptococcus agalactiae): > 64 µM; selectivity ratio [24]: 40.3
CC[C@H](C)[C@H](N)C(=O)N[C@H](C(=O)N[C@H](C(=O)N[C@@H](CS)C(=O)N[C@@H](CCCNC(=N)N)C(=O)N[C@@H](CCCCN)C(=O)N1CCC[C@H]1C(=O)N[C@H](C(=O)N[C@H](C(=O)N[C@@H](CS)C(=O)N[C@@H](CCCNC(=N)N)C(=O)N[C@@H](CCCCN)C(=O)N1CCC[C@H]1C(=O)N[C@H](C(=O)N[C@H](C(=O)N[C@@H](CS)C(=O)N[C@@H](CCCNC(=N)N)C(=O)N[C@@H](CCCCN)C(=O)N1CCC[C@H]1C(=O)N[C@H](C(=O)N[C@H](C(=O)N[C@@H](CS)C(=O)N[C@@H](CCCNC(=N)N)C(=O)N[C@@H](CCCCN)C(=O)N1CCC[C@H]1C(=O)N[C@H](C(=O)N[C@H](C(=O)N[C@@H](CS)C(=O)N[C@@H](CCCNC(=N)N)C(=O)N[C@@H](CCCCN)C(=O)N1CCC[C@H]1C(=O)N[C@H](C(=O)N[C@H](C(=O)N[C@H](C(N)=O)[C@@H](C)CC)[C@@H](C)CC)[C@@H](C)CC)[C@@H](C)CC)[C@@H](C)CC)[C@@H](C)CC)[C@@H](C)CC)[C@@H](C)CC)[C@@H](C)CC)[C@@H](C)CC)[C@@H](C)CC)[C@@H](C)CC)[C@@H](C)CC (H-IIICRKPIICRKPIICRKPIICRKPIICRKPIII-NH2) | 2 | 4 (≈ 16.1 µg/mL) | > 90 | 2 | 2 | > 64 | > 64 | 8 (≈ 32.2 µg/mL) | 4 (≈ 16.1 µg/mL) | > 64 | < 5 | > 90 | 32 | 4 (≈ 16.1 µg/mL) | 32 | 32 | > 64 | 4 (≈ 16.1 µg/mL) | 2 | > 64 | MIC (Escherichia coli [19]): 2 µM (≈ 8.05 µg/mL); MHC (Erythrocyte): > 128 µM; selectivity ratio [20]: 2; selectivity ratio [21]: 32; selectivity ratio [22]: 2; selectivity ratio [23]: 32; MIC (Streptococcus agalactiae): > 64 µM; selectivity ratio [24]: 32
